Measured values taken from patent publication US6503942B2, “Ethers of O-Desmethyl venlafaxine” (Wyeth, priority 1999, dated 2003).

CN(C)CC(c1ccc(OCOC(=O)C(C)(C)C)cc1)C1(O)CCCCC1.O=C(O)/C=C\C(=O)O (stereo not shown) [Example 5, {4-[2-(Dimethylamino)-1-(1-hydroxycyclohexyl)ethyl]phenoxy}methyl Pivalate Maleate Salt]
melting point: 112 to 113 °C
